Test results published in ChEMBL document CHEMBL1151681, “New Naphthalenyl Glucosides from the Roots of Juglans mandshurica” (J Nat Prod, 1996).
≈ marks a conversion by molar mass, not a printed value.

Tests used:
[1] = test system: U-937; test: Cytotoxicity against human U937 cells by MTT assay; type: functional, cell-based
[2] = Cytotoxicity against human Hep3B cells by MTT assay; type: functional, cell-based, Hep 3B2

COc1cc(C(=O)OC[C@H]2O[C@@H](Oc3ccc(O)c4cccc(O)c34)[C@H](O)[C@@H](O)[C@@H]2O)cc(OC)c1O
IC50 [1]: 50 µg/mL (≈ 96.4 µM)
IC50 [2]: > 100 µg/mL

O=C(OC[C@H]1O[C@@H](Oc2ccc(O)c3cccc(O)c23)[C@H](O)[C@@H](O)[C@@H]1O)c1cc(O)c(O)c(O)c1
IC50 [1]: 30 µg/mL (≈ 61.2 µM)
IC50 [2]: > 100 µg/mL
